The subject of data set [1] is OVCAR-8, human ovarian cancer cells with dysfunctional p53. Kind of data set: CyQUANT cell proliferation assay, OVCAR-8. It counts as cell-based. The note with it: OVCAR-8, 72-hour treatment. The source says: (§1) In these experiments, desired number of cells were exposed to phosphaplatins of different concentrations for 72 hr. before measuring the DNA content. Because the DNA content is proportional to the number of surviving cells, the assay provides a quantitative measure of proliferating cells. The technique is described in detail in Jones et al., “Sensitive determination of cell number using the CyQUANT cell proliferation assay,” J. Immunol. Methods, vol. 254, pp. 85-98 (2001).
(§2) In TABLES 1-5, except where actual error values are given, each reported value is assumed to have an error not greater than ±15% of the reported value; and unless otherwise specified, the data were obtained from clonogenic assays.

Data set [2] relates to A2780/C30, epithelial human ovarian cancer resistant to 30 μM cisplatin and 100 μM carboplatin. Briefly: Clonogenic assay, A2780/C30 cells. The conditions noted are these: A2780/C30, 1 hour treatment. It is filed as cell-based. The method, then: (§3) To determine the relative activities of the phosphaplatins of formulas (I)-(VI), each stereoisomer was tested through in vitro clonogenic assays using human ovarian cancer cells, human colon cancer cells, and human head-and-neck cancer cells. […] Cells were cultured on monolayer using RPMI 1640 supplemented with 10% fetal bovine serum, 2 mM glutamine, 0.25 units/mL insulin and penicillin/streptomycin (100 units/mL) in a 37° C. incubator continuously gassed with 5% CO2. Cells were subcultured using 0.0625% trypsin in HBSS to maintain cells in exponential cell growth.
(§4) Half-maximal inhibitory concentration (IC50) values were determined using a clonogenic assay or a CyQUANT® cell proliferation assay. In the clonogenic assay, for example, 500-700 A2780 cells from a single cell suspension were plated onto 60 mm petri plates 24 hours before treatment with the platinum compounds to permit cell attachment. On the day of treatment with the platinum compounds described in the above Synthesis Examples, the medium was decanted and was replaced with the appropriate concentration of phosphaplatin compounds (from 50 nM to 75 μM) at three different time points, […] Triplicate plates were set up for each platinum compound concentration. After the 24-hour treatment, the medium containing the platinum compounds was decanted and was replaced with fresh medium. These plates were returned to the 37° C. incubator for 7 days for colony formation.
as §2
(§5) In further tests, cells were treated with the platinum compounds continuously for 7 days. Colonies were fixed and stained using 2% crystal violet in 4% formaldehyde. Colonies containing more than 50 cells were scored. The number of scored colonies from the triplicate plates was averaged, and this number was divided by the number of cells plated to obtain a value for the fraction of cells forming colonies. These values for fraction of cells forming colonies then were corrected for plating efficiency by dividing the fraction by the number of cells forming colonies in plates that were not treated with platinum compounds. […] Similar data for OVCAR-10 are shown in FIG. 3, comparing (1R,2R)-pyrodach-2 (RD2), (1R,2R)-pyrodach-4 (RD4), trans-(±)-pyrodach-2 (T-D2), and trans-(±)-pyrodach-4 (T-D4).

Data set [3] has as its system OVCAR-10, human ovarian cancer resistant to cisplatin treatment. Kind of data set: Clonogenic assay, OVCAR-10 cells. It counts as cell-based. The conditions noted are these: OVCAR-10, 24 hours treatment. On the procedure: as §3
Half-maximal inhibitory concentration (IC50) values were determined using a clonogenic assay or a CyQUANT® cell proliferation assay. In the clonogenic assay, for example, 500-700 A2780 cells from a single cell suspension were plated onto 60 mm petri plates 24 hours before treatment with the platinum compounds to permit cell attachment. On the day of treatment with the platinum compounds described in the above Synthesis Examples, the medium was decanted and was replaced with the appropriate concentration of phosphaplatin compounds (from 50 nM to 75 μM) at three different time points, and the treated cells were placed back into the 37° C. incubator for 24 hours. Triplicate plates were set up for each platinum compound concentration. After the 24-hour treatment, the medium containing the platinum compounds was decanted and was replaced with fresh medium. These plates were returned to the 37° C. incubator for 7 days for colony formation.
as §2, §5

Data set [4] relates to U251, human glioblastoma cancer cells. Briefly: CyQUANT cell proliferation assay, U251. It is filed as cell-based. The conditions noted are these: U251, 72-hour treatment.
Excerpt: as §1, §2

The test system of data set [5] is A2780, epithelial human ovarian cancer. Briefly: Clonogenic assay, A2780 cells. It is filed as cell-based. The method, then: as §3
as §4, with “After the 24-hour treatment, the medium containing the platinum compounds was decanted and was replaced with fresh medium.” left out
as §2, §5

Data set [6] deals with A549, human lung adenocarcinoma cancer cells. Briefly: CyQUANT cell proliferation assay, A549. It counts as cell-based. The conditions noted are these: A549, 72-hour treatment.
Excerpt: as §1, §2

In data set [7] the test system is SKMEL-2, human skin melanoma cancer cells. Kind of data set: CyQUANT cell proliferation assay, SKMEL-2. It counts as cell-based. The conditions noted are these: SKMEL-2, 72-hour treatment.
Excerpt: as §1, §2

In the next data set the test system is Ovarian tumor. Briefly: Ovarian tumor inflicted SCID mice, tumor growth and log cell kill. It counts as in vivo. The conditions noted are these: 7 mg/kg. The method, then:
Ovarian tumor inflicted SCID mice were treated with trans-(±)-pyrodach-2 and trans-(±)-pyrodach-4 at various doses up to 40 mg/kg, and tumor growth was monitored up to six weeks or until the tumor size became so large that these animals were sacrificed. The tumor growth or regression by the phosphaplatin-treated mice was then compared with cisplatin-treated mice (7 mg/kg) and carboplatin-treated mice (60 mg/kg). Three doses of platinum compounds were administered on alternate days when the tumor grew to a size of at least 100 mm^3 size. Gross and net log cell kill values were then calculated using the formulas:
[formula] [formula] where T and C are median times in days to grow tumor to a specified size, and Td is the median time in days to double the size of the tumor in control animals.

Data set [8] concerns PC-3, human metastatic prostate cancer cells. Kind of data set: CyQUANT cell proliferation assay, PC-3. It counts as cell-based. The note with it: PC-3, 72-hour treatment.
Excerpt: as §1, §2

The subject of data set [9] is human colon cancer cell lines (HT-29). Kind of data set: CyQUANT cell proliferation assay, HT-29. It is filed as cell-based. The note with it: HT-29, 72 hours.
Excerpt: as §1, §2

Data set [10] relates to MCF-7, human breast cancer cells. Briefly: CyQUANT cell proliferation assay, MCF-7. The conditions noted are these: MCF-7, 72-hour treatment. It counts as cell-based.
Excerpt: as §1, §2

For data set [11], the system named is OVCAR-10, human ovarian cancer resistant to cisplatin treatment. Kind of data set: CyQUANT cell proliferation assay, OVCAR-10. It counts as cell-based. The conditions noted are these: OVCAR-10, 72-hour treatment.
Excerpt: as §1, §2

pIC50: −log10 of the molar value.

Here are results for 1 compound from patent US9688709B2, “Phosphaplatins and their use for treatment of cancers” (OHIO UNIVERSITY, priority 2010, dated 2017).

As to `N.N.[Cl][Pt][Cl]` [cisplatin], the pIC50 is 5.20 in [1]; 4.00 in data set [2]; 5.39 in data set [3]; 6.12 in data set [4]; 5.15 in data set [5] (A2780, 1 hour treatment); 5.30 in data set [5] (A2780, 24 hours treatment). The pIC50 in [6] is 5.55; in [7] it was 5.27; in data set [8], 5.97; in data set [9], 5.19; in data set [10] it was 5.29; in data set [11], 5.51. Also, the “time to death of treated mice” value in the data set with Ovarian tumor is given as ≤ 7 days. Further, in the data set on Ovarian tumor, the tumor response result was “tumor regression”.

By pIC50 is commonly meant the IC50 on a negative log10 scale, so that one unit is a factor of ten.
